# Reference: ChEMBL document CHEMBL1201862, “PubChem BioAssay data set” (2004)
#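 All cell lines were grown in 96-well plates and treated with compound for 48 hours. GI50 marks 50% less growth.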 The source made the active and inactive calls. Cut-off read from the data, not from the text of the source: active = GI50 up to about 1.1 µM and inactive = higher.
# Legend:
# Experiment in all cases: NCI tumour cell line growth inhibition, 48 h
# KM-20L2 = system: KM-20L2
# ACHN = system: ACHN
# 786-0 = system: 786-0
# KM12 = system: KM12
# TK-10 = system: TK-10
# COLO 205 = system: COLO 205
# HL-60 = system: HL-60
# CCRF-CEM = system: CCRF-CEM
# SN12C = system: SN12C
# HT-29 = system: HT-29
# SNB-78 = system: SNB-78
# HCC 2998 = system: HCC 2998
# OVCAR-8 = system: OVCAR-8
# HOP-92 = system: HOP-92
# SF-268 = system: SF-268
# SK-MEL-5 = system: SK-MEL-5
# HOP-18 = system: HOP-18
# SF-295 = system: SF-295
# XF498 = system: XF498
# UACC-257 = system: UACC-257
# UO-31 = system: UO-31
# DLD-1 = system: DLD-1
# MOLT-4 = system: MOLT-4
# EKVX = system: EKVX
# SNB-75 = system: SNB-75
# Malme-3M = system: Malme-3M
# A549 = system: A549
# RXF 631 = system: RXF 631
# HCT-15 = system: HCT-15
# HOP-62 = system: HOP-62
# RXF 393 = system: RXF 393
# SK-MEL-2 = system: SK-MEL-2
# SK-OV-3 = system: SK-OV-3
# CAKI-1 = system: CAKI-1
# NCI-H23 = system: NCI-H23
# NCI-H460 = system: NCI-H460
# NCI-H522 = system: NCI-H522
# RPMI-8226 = system: RPMI-8226
# SW-620 = system: SW-620
# OVCAR-5 = system: OVCAR-5
# DMS-114 = system: DMS-114
# OVCAR-4 = system: OVCAR-4
# U-251 = system: U-251
# LOX IMVI = system: LOX IMVI
# SNB-19 = system: SNB-19
# SK-MEL-28 = system: SK-MEL-28
# NCI-H226 = system: NCI-H226
# K562 = system: K562
# OVCAR-3 = system: OVCAR-3
# DMS-273 = system: DMS-273
# LXFL 529 = system: LXFL 529
# M14 = system: M14
# SF-539 = system: SF-539
# A498 = system: A498
# SR = system: SR
# UACC-62 = system: UACC-62
# M19-MEL = system: M19-MEL
# HCT-116 = system: HCT-116
# IGROV-1 = system: IGROV-1
smiles,measurement,setting,value
COc1cc(C(=O)CC2(O)C(=O)Nc3c(Cl)cc(Cl)cc32)ccc1O (stereo not drawn),GI50,KM-20L2,61.4 µM (inactive)
same,GI50,ACHN,57.1 µM (inactive)
same,GI50,786-0,> 100 µM (inactive)
same,GI50,KM12,78.3 µM (inactive)
same,GI50,TK-10,> 100 µM (inactive)
same,GI50,COLO 205,28.7 µM (inactive)
same,GI50,HL-60,36.2 µM (inactive)
same,GI50,CCRF-CEM,36.6 µM (inactive)
same,GI50,SN12C,> 100 µM (inactive)
same,GI50,HT-29,29.4 µM (inactive)
same,GI50,SNB-78,87.9 µM (inactive)
same,GI50,HCC 2998,31.5 µM (inactive)
same,GI50,OVCAR-8,63 µM (inactive)
same,GI50,HOP-92,23.8 µM (inactive)
same,GI50,SF-268,43.8 µM (inactive)
same,GI50,SK-MEL-5,27.6 µM (inactive)
same,GI50,HOP-18,34.4 µM (inactive)
same,GI50,SF-295,69.2 µM (inactive)
same,GI50,XF498,48.3 µM (inactive)
same,GI50,UACC-257,43.6 µM (inactive)
same,GI50,UO-31,37.9 µM (inactive)
same,GI50,DLD-1,41.9 µM (inactive)
same,GI50,MOLT-4,26.3 µM (inactive)
same,GI50,EKVX,94 µM (inactive)
same,GI50,SNB-75,24.2 µM (inactive)
same,GI50,Malme-3M,> 100 µM (inactive)
same,GI50,A549,55 µM (inactive)
same,GI50,RXF 631,> 100 µM (inactive)
same,GI50,HCT-15,64 µM
same,GI50,HOP-62,37.5 µM (inactive)
same,GI50,RXF 393,27.5 µM (inactive)
same,GI50,SK-MEL-2,87.1 µM (inactive)
same,GI50,SK-OV-3,14.9 µM (inactive)
same,GI50,CAKI-1,56.2 µM (inactive)
same,GI50,NCI-H23,59.2 µM (inactive)
same,GI50,NCI-H460,75.7 µM (inactive)
same,GI50,NCI-H522,47.8 µM (inactive)
same,GI50,RPMI-8226,24.4 µM (inactive)
same,GI50,SW-620,71.6 µM (inactive)
same,GI50,OVCAR-5,> 100 µM (inactive)
same,GI50,DMS-114,37.8 µM (inactive)
same,GI50,OVCAR-4,60.8 µM (inactive)
same,GI50,U-251,69 µM (inactive)
same,GI50,LOX IMVI,> 100 µM (inactive)
same,GI50,SNB-19,76.7 µM (inactive)
same,GI50,SK-MEL-28,> 100 µM (inactive)
same,GI50,NCI-H226,40 µM (inactive)
same,GI50,K562,35.5 µM (inactive)
same,GI50,OVCAR-3,46.3 µM (inactive)
same,GI50,DMS-273,53 µM (inactive)
same,GI50,LXFL 529,27.9 µM (inactive)
same,GI50,M14,66.7 µM (inactive)
O=C1N2Cc3c4ccc5c3CN3C(=O)N6Cc7c(ccc(c7CN1C6(c1ccccc1)C23c1ccccc1)OCCOCCNCCOCCO4)OCCOCCNCCOCCO5 (stereo not drawn),GI50,KM-20L2,52.4 µM (inactive)
same,GI50,ACHN,22.5 µM (inactive)
same,GI50,SF-539,56.9 µM (inactive)
same,GI50,786-0,31.5 µM (inactive)
same,GI50,KM12,18.5 µM (inactive)
same,GI50,TK-10,26.9 µM (inactive)
same,GI50,A498,> 100 µM (inactive)
same,GI50,CCRF-CEM,23.2 µM (inactive)
same,GI50,SN12C,19.5 µM (inactive)
same,GI50,HT-29,13.9 µM (inactive)
same,GI50,SNB-78,> 100 µM (inactive)
same,GI50,HCC 2998,34.9 µM (inactive)
same,GI50,SR,54.7 µM (inactive)
same,GI50,OVCAR-8,65 µM (inactive)
same,GI50,HOP-92,18 µM (inactive)
same,GI50,SF-268,> 100 µM (inactive)
same,GI50,SK-MEL-5,55.2 µM (inactive)
same,GI50,HOP-18,14.4 µM (inactive)
same,GI50,SF-295,65.5 µM (inactive)
same,GI50,XF498,60.1 µM (inactive)
same,GI50,UACC-62,42.4 µM (inactive)
same,GI50,UACC-257,16.9 µM (inactive)
same,GI50,UO-31,38.8 µM (inactive)
same,GI50,DLD-1,> 100 µM (inactive)
same,GI50,M19-MEL,24.9 µM (inactive)
same,GI50,MOLT-4,19.7 µM (inactive)
same,GI50,EKVX,> 100 µM (inactive)
same,GI50,SNB-75,> 100 µM (inactive)
same,GI50,Malme-3M,23.5 µM (inactive)
same,GI50,A549,28.6 µM (inactive)
same,GI50,RXF 631,31.4 µM (inactive)
same,GI50,HCT-15,28.3 µM
same,GI50,HOP-62,> 100 µM (inactive)
same,GI50,RXF 393,33.2 µM (inactive)
same,GI50,SK-MEL-2,59.7 µM (inactive)
same,GI50,SK-OV-3,85.9 µM (inactive)
same,GI50,CAKI-1,51.6 µM (inactive)
same,GI50,NCI-H23,70.5 µM (inactive)
same,GI50,NCI-H460,30.5 µM (inactive)
same,GI50,NCI-H522,> 100 µM (inactive)
same,GI50,RPMI-8226,11.7 µM (inactive)
same,GI50,SW-620,18 µM (inactive)
same,GI50,OVCAR-5,> 100 µM (inactive)
same,GI50,DMS-114,> 100 µM (inactive)
same,GI50,OVCAR-4,> 100 µM (inactive)
same,GI50,U-251,28.9 µM (inactive)
same,GI50,SNB-19,> 100 µM (inactive)
same,GI50,SK-MEL-28,> 100 µM (inactive)
same,GI50,HCT-116,30.8 µM (inactive)
same,GI50,NCI-H226,> 100 µM (inactive)
same,GI50,IGROV-1,65.8 µM (inactive)
same,GI50,K562,69.7 µM (inactive)
same,GI50,OVCAR-3,15 µM (inactive)
same,GI50,DMS-273,41.2 µM (inactive)
same,GI50,LXFL 529,13.7 µM (inactive)
same,GI50,M14,21.8 µM (inactive)
